From patent publication US10106501B2, “Nuclear receptor modulators” (AbbVie Inc., priority 2015, dated 2018)
Like-named read-outs stand apart in the source and are kept apart here.

Molecular target: T1, chimeric human RORγ-Gal4 receptor (Homo sapiens, UniProt P51449)
T1 sequence (P51449 269-508 limits assumed): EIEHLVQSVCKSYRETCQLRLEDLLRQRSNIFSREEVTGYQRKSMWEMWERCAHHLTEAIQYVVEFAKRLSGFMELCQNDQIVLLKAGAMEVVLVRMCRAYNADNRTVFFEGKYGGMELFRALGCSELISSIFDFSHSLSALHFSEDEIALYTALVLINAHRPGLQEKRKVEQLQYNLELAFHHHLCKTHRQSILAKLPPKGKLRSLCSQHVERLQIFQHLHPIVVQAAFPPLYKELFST
Assay: transient transactivation assay (RORγ-Gal4 luciferase reporter)
Type: cell-based

[1] = Cos-7 cells transfected with RORγ-Gal4 and 5Gal4 pGL3 TK Luc reporter, overnight incubation, T0901317 at 10^-5 M as reference, read-out: IC50

| SMILES | IC50 [1] [nM] | further results |
| --- | --- | --- |
| Cc1cc(C(F)(F)F)cc2c1c(Cc1c(Cl)ccc(C(=O)N3CC[C@H](C(=O)O)[C@H](C)C3)c1Cl)cn2C [Example F1-2] | < 100 |  |
| Cc1ccc(C(=O)N2CCOCC2)c(C)c1Cc1cc2c(C)cc(C#N)cc2n1C [Example AE, 2-(2,6-dimethyl-3-(morpholine-4-carbonyl)benzyl)-1,4-dimethyl-1H-indole-6-carbonitrile] | 100 to 500 |  |
| Cc1cn(Cc2c(Cl)ccc(C(=O)N3CCC(C(=O)O)CC3)c2Cl)c2c(C)cc(C(F)(F)F)cc12 [DH, 1-(2,4-dichloro-3-((3,7-dimethyl-5-(trifluoromethyl)-1H-indol-1-yl)methyl)benzoyl)piperidine-4-carboxylic acid] | < 100 |  |
| Cn1c(Cc2c(Cl)ccc(C(=O)N3CCOCC3)c2Cl)cc2c(Cl)cc(C#N)cc21 [CJ, 4-chloro-2-(2,6-dichloro-3-(morpholine-4-carbonyl)benzyl)-1-methyl-1H-indole-6-carbonitrile] | 1000 to 10000 |  |
| Cc1cc(C#N)cc2c1cc(Cc1c(Cl)ccc(CN3CCOCC3=O)c1Cl)n2C [Example AU, 2-(2,6-dichloro-3-((3-oxomorpholino)methyl)benzyl)-1,4-dimethyl-1H-indole-6-carbonitrile] |  | IC50: 100 to 500 nM |
| Cc1cc2nc(Cc3c(Cl)ccc(C(=O)N4CCOCC4)c3Cl)c(C)n2nc1C#N [DB, 2-(2,6-dichloro-3-(morpholine-4-carbonyl)benzyl)-3,7-dimethylimidazo[1,2-b]pyridazine-6-carbonitrile] | 1000 to 10000 |  |
| Cc1cc(C#N)cc2c1cc(Cc1c(Cl)ncc(C(=O)N3CCC(C4COC4)CC3)c1Cl)n2C [Example FC, 2-((2,4-dichloro-5-(4-(oxetan-3-yl)piperidine-1-carbonyl)pyridin-3-yl)methyl)-1,4-dimethyl-1H-indole-6-carbonitrile] | < 100 |  |
| Cn1c(Cc2c(Cl)ccc(C(=O)N3CCC(CC(=O)O)CC3)c2Cl)cc2c(F)cc(C3CC3)cc21 [Example FM, 2-(1-(2,4-dichloro-3-((6-cyclopropyl-4-fluoro-1-methyl-1H-indol-2-yl)methyl)benzoyl)piperidin-4-yl)acetic acid] | < 100 |  |
| Cc1ncc(C(=O)N2CCC(CC(=O)O)CC2)c(C)c1Cc1cc2c(C)cc(C(F)(F)F)cc2n1C [Example BC, 2-(1-(5-((1,4-dimethyl-6-(trifluoromethyl)-1H-indol-2-yl)methyl)-4,6-dimethylnicotinoyl)piperidin-4-yl)acetic acid] | 100 to 500 |  |
| Cc1cc(C(F)(F)F)cc2c1cc(Cc1c(Cl)cn(CCC(=O)O)c(=O)c1Cl)n2C [Example BI, 3-(3,5-dichloro-4-((1,4-dimethyl-6-(trifluoromethyl)-1H-indol-2-yl)methyl)-2-oxopyridin-1(2H)-yl)propanoic acid] | 1000 to 10000 |  |
| Cc1cc(C(F)(F)F)nc2c1cc(Cc1c(Cl)cnc(C(=O)N3CCOCC3)c1Cl)n2C [Example GH, (3,5-dichloro-4-((1,4-dimethyl-6-(trifluoromethyl)-1H-pyrrolo[2,3-b]pyridin-2-yl)methyl)pyridin-2-yl)(morpholino)methanone] |  | IC50 (read-out: IC50): < 100 nM |
| Cc1cc(C(F)(F)F)cc2c1CC(Cc1c(Cl)ccc(C(=O)N3CCOCC3)c1Cl)N2C (stereo not drawn) [Example Q, (2,4-dichloro-3-((1,4-dimethyl-6-(trifluoromethyl)indolin-2-yl)methyl)phenyl)(morpholino)methanone] | 100 to 500 |  |
| Cc1cc(C(F)(F)F)cc2c1cc(Cc1c(Cl)ncc(C(=O)N3CCOCC3)c1Cl)n2C [Example BH, (4,6-dichloro-5-((1,4-dimethyl-6-(trifluoromethyl)-1H-indol-2-yl)methyl)pyridin-3-yl)(morpholino)methanone] | < 100 |  |
| Cc1cc(C(F)(F)F)cc2c1cc(Cc1c(Cl)ccc(C(=O)N3CCC(C(=O)O)C(F)C3)c1Cl)n2C (stereo not drawn) [Example BA, 1-(2,4-dichloro-3-((1,4-dimethyl-6-(trifluoromethyl)-1H-indol-2-yl)methyl)benzoyl)-3-fluoropiperidine-4-carboxylic acid] | < 100 |  |
| Cc1cn(Cc2c(Cl)cnc(C(=O)N3CCC(CC(=O)O)CC3)c2Cl)c2c(C)cc(C(F)(F)F)cc12 [Example FR, 2-(1-(3,5-dichloro-4-((3,7-dimethyl-5-(trifluoromethyl)-1H-indol-1-yl)methyl)picolinoyl)piperidin-4-yl)acetic acid] | < 100 |  |
| Cc1cn(C(=O)c2c(Cl)ccc(C(=O)N3CC[C@@H](C(=O)O)[C@@H](C)C3)c2Cl)c2c(C)cc(C(F)(F)F)cc12 [DJ1-3] | < 100 |  |
| Cc1cc(OC(F)(F)F)cc2c1c(Cc1c(Cl)ncc(C(=O)N3CCC(CC(=O)O)CC3)c1Cl)cn2C [DY, 2-[1-[4,6-dichloro-5-[[1,4-dimethyl-6-(trifluoromethoxy)-1H-indol-3-yl]methyl]pyridine-3-carbonyl]-4-piperidyl]acetic acid] | < 100 |  |
| Cn1c(Cc2c(Cl)ccc(C(=O)N3CCC(O)CC3)c2Cl)cc2ccc(C(F)(F)F)cc21 [L, (2,4-dichloro-3-((1-methyl-6-(trifluoromethyl)-1H-indol-2-yl)methyl)phenyl)(4-hydroxypiperidin-1-yl)methanone] | < 100 |  |
| Cc1ncc(C(=O)N2CCC(C3COC3)CC2)c(C)c1C(=O)c1cc2c(C)cc(C#N)cc2n1C [Example BD, 2-[2,4-dimethyl-5-[4-(oxetan-3-yl)piperidine-1-carbonyl]pyridine-3-carbonyl]-1,4-dimethyl-indole-6-carbonitrile] | 1000 to 10000 |  |

The next lines start with results.

| IC50 [1] [nM] | SMILES | further results |
| --- | --- | --- |
| < 100 | COC1CCN(C(=O)c2ccc(Cl)c(Cc3nc4c(C)cc(C(F)(F)F)cn4c3C)c2Cl)CC1 [CT-6] |  |
| < 100 | Cn1c(Cc2c(Cl)ccc(C(=O)N3CCC(C(=O)O)CC3)c2Cl)cc2c(F)cc(C(F)(F)F)cc21 [FE-2] |  |
| 100 to 500 | Cc1cc(C(F)(F)F)cc2c1nc(Cc1c(Cl)ccc(CN3CCC(CO)CC3)c1Cl)n2C [BW-14] |  |
| < 100 | COCCC1CCN(C(=O)c2ccc(Cl)c(Cc3nc4c(C)cc(C(F)(F)F)cc4n3C)c2Cl)CC1 [BJ-18] |  |
| 500 to 1000 | Cc1cc(C(F)(F)F)cc2c1nc(Cc1c(Cl)ccc(C(=O)N3CCC4(CC3)COC4)c1Cl)n2C [BJ-25] |  |
| 100 to 500 | Cc1cc(C(F)(F)F)cn2c(C)c(Cc3c(Cl)ccc(C(=O)N4CCN(C5COC5)CC4)c3Cl)nc12 [CT-9] |  |
| 100 to 500 | Cc1cc(C(F)(F)F)cc2c1nc(Cc1c(Cl)ccc(CN3CCC4(CCOC4)CC3)c1Cl)n2C [BW-8] |  |
| < 100 | Cc1cn(Cc2c(Cl)ccc(C(=O)N3CCC(C(=O)O)CC3)c2Cl)c2c(C)cc(OC(F)(F)F)cc12 [EG-1] |  |
| < 100 | Cc1cc(C(F)(F)F)cc2c1cc(Cc1c(Cl)ccc(C(=O)N3CCN(C4COC4)CC3)c1Cl)n2C [Example A1, (2,4-dichloro-3-((1,4-dimethyl-6-(trifluoromethyl)-1H-indol-2-yl)methyl)phenyl)(4-(oxetan-3-yl)piperazin-1-yl)methanone] |  |
| < 100 | O=C(O)CC1CCN(C(=O)c2ccc(Cl)c(Cn3ccc4cccc(Cl)c43)c2Cl)CC1 [EI-3] |  |
| < 100 | Cc1cc(C#N)cc2c1cc(Cc1c(Cl)ccc(C(=O)N3CCC(C(C)O)CC3)c1Cl)n2C (stereo not drawn) [AA-1] |  |
| < 100 | Cc1cc(C(F)(F)F)cc2c1nc(Cc1c(Cl)ccc(C(=O)N3CCC(C(C)O)CC3)c1Cl)n2C (stereo not drawn) [BJ-12] |  |
| < 100 | Cc1cc(C(F)(F)F)cc2c1cc(C(=O)c1c(Cl)ccc(C(=O)N3CC[C@H](C(=O)O)[C@H](C)C3)c1Cl)n2C (racemic) [AQ-3] |  |
| 100 to 500 | COCCN1CCN(Cc2ccc(Cl)c(Cc3nc4c(C)cc(C(F)(F)F)cc4n3C)c2Cl)CC1 [BW-9] |  |
